Data published in patent publication US20170136010A1, “ORAL SOLID PREPARATION COMPRISING ARIPIPRAZOLE AND METHOD FOR PRODUCING ORAL SOLID PREPARATION COMPRISING ARIPIPRAZOLE” (OTSUKA PHARMACEUTICAL CO., LTD, priority 2013, published 2017).

Experiments:
Format in all cases: physicochemical
[1] = Hygroscopic test of aripiprazole anhydrous crystal, water content by Karl Fischer coulometric titration; conditions: for Water content level (wt %) after humidification: after 24 hours at 60° C. in desiccator including water; for Water content level (wt %) before humidification: before hygroscopic test
Procedure: About 1 g of aripiprazole obtained in the Synthesis Example was weighed in each of the weighing bottles having a diameter of about 5 cm. Each of the bottles was sealed with Kimwipe, and allowed to stand in a desiccator including water. The desiccator was placed in an oven at 60° C., and allowed to stand for 24 hours.
The weighing bottles were removed from the desiccator, and allowed to stand for 16 hours or more in a desiccator (room temperature/about 30% RH) including an MgCl2/6H2O saturated salt solution, thereby removing attached excess water. The water contents of the samples before and after the hygroscopic test were measured according to the following test procedure.
0.1 g of the aripiprazole obtained in the Synthesis Example and 0.1 g of the aripiprazole obtained after the hygroscopic test were accurately weighed. Using a moisture meter (CA-200) produced by Mitsubishi Chemical Analytech Co., Ltd., a test was performed according to the coulometric titration method, which is a water content measurement method (Karl Fischer method).

[2] = Hygroscopic test of finely milled powder, water content by Karl Fischer method; conditions: for Water content level (wt %), hygroscopic test of finely milled aripiprazole crystal, 24 hours: 60° C., humidity 100%
Procedure: The finely milled powder obtained above was evaluated by a hygroscopic test according to the following method.
About 1 g of milled powder was weighed in a weighing bottle with a diameter of 5 cm, allowed to stand in water/desiccator in which the temperature and humidity were respectively set to 60° C. and 100%, and then allowed to stand in MgCl2.6H2O saturated salt solution/desiccator having a room temperature and humidity of about 30% for 24 hours, Thereafter, the water content was measured. The water content was measured according to the Karl Fischer method by accurately measuring 0.1 g of a sample.

[3] = Mean particle size by laser diffraction scattering particle size distribution analyzer; conditions: volume mean diameter, dry
Procedure: The term “mean particle size” refers to volume mean diameter as calculated from the particle size distribution measured by a laser scattering particle size distribution analyzer analyzer.
The particle size of the resulting finely milled powder of highly hygroscopic aripiprazole anhydrous crystal was measured using Dry Unit 2000, which was a laser diffraction scattering particle size distribution analyzer (Laser Micron Sizer (LMS-2000e)), and the mean particle size was calculated from the obtained measurement results. […] The measurement conditions using a laser diffraction scattering particle size distribution analyzer were as follows: Particle refractive index: 1.750, imaginary part: 0.1, and dispersive pressure: 0.15 MPa.

| SMILES | Water content level (wt %) after humidification [1] | Water content level (wt %) before humidification [1] | Water content level (wt %), hygroscopic test of finely milled aripiprazole crystal, 0 hour [2] | Water content level (wt %), hygroscopic test of finely milled aripiprazole crystal, 24 hours [2] | Mean particle size [3] |
| --- | --- | --- | --- | --- | --- |
| O=C1CCc2ccc(OCCCCN3CCN(c4cccc(Cl)c4Cl)CC3)cc2N1 [Lot No. 1, 7-{4-[4-(2,3-dichlorophenyl)-1-piperazinyl]butoxy}-3,4-dihydrocarbostyril] | 0.809 wt % | 0.003 wt % | – | – | – |
| O=C1CCc2ccc(OCCCCN3CCN(c4cccc(Cl)c4Cl)CC3)cc2N1 [Lot No. 2, 7-{4-[4-(2,3-dichlorophenyl)-1-piperazinyl]butoxy}-3,4-dihydrocarbostyril] | 2.759 wt % | 0.032 wt % | – | – | – |
| O=C1CCc2ccc(OCCCCN3CCN(c4cccc(Cl)c4Cl)CC3)cc2N1 [Reference Example 1, 7-{4-[4-(2,3-dichlorophenyl)-1-piperazinyl]butoxy}-3,4-dihydrocarbostyril] | – | – | 0.10 wt % | 3.37 wt % | 2.6 μm |
| O=C1CCc2ccc(OCCCCN3CCN(c4cccc(Cl)c4Cl)CC3)cc2N1 [compound 2, 7-{4-[4-(2,3-dichlorophenyl)-1-piperazinyl]butoxy}-3,4-dihydrocarbostyril] | – | – | 0.21 wt % | 3.69 wt % | 5.1 μm |
| O=C1CCc2ccc(OCCCCN3CCN(c4cccc(Cl)c4Cl)CC3)cc2N1 [compound 3, 7-{4-[4-(2,3-dichlorophenyl)-1-piperazinyl]butoxy}-3,4-dihydrocarbostyril] | – | – | 0.24 wt % | 3.97 wt % | 8.9 μm |
| O=C1CCc2ccc(OCCCCN3CCN(c4cccc(Cl)c4Cl)CC3)cc2N1 [compound 4, 7-{4-[4-(2,3-dichlorophenyl)-1-piperazinyl]butoxy}-3,4-dihydrocarbostyril] | – | – | 0.29 wt % | 3.90 wt % | 9.6 μm |
